Test results: PMC12300679, “Taurine-Based Hybrid Drugs as Potential Anticancer Therapeutic Agents: In Vitro, In Vivo Evaluations” (Pharmaceuticals, 2025)

Key:
[1] = test system: HL-60 human promyelocytic leukemia cells; experiment: MTT cytotoxicity assay, HL-60; type: cell-based; details: for IC50: Homo sapiens, HL-60, MTT, tested at 1–200 µM, three independent experiments
[2] = test system: WI38 human fibroblast cell line; experiment: MTT cytotoxicity assay, normal WI38 cells; type: cell-based; details: WI-38, tested at 1–200 µM, three independent experiments
[3] = test system: RPMI 1788 human healthy donor peripheral blood leukocytes; experiment: MTT cytotoxicity assay, normal RPMI 1788 cells; type: cell-based; details: tested at 1–200 µM, three independent experiments, read-out: IC50 RPMI 1788 (normal cell line)
lymphatic leukemia P388 = experiment: Antitumor activity, syngeneic lymphatic leukemia P388 in BDF1 mice; type: in vivo, mouse; details: for ILS / MST ± SD: i.p. days 1, 5, 9; for antileukemia / antitumor effect (in words): doses under study, i.p.
Procedure: At the next stage, we evaluated them in vivo using syngeneic mouse leukosis P388, which plays an important role in the screening of potential antitumor agents. The antitumor effect of the synthesized compounds was evaluated according to the increase in the average lifespan (ILS, %) of tumor-bearing animals. Due to the fact that physiologically relevant solvent, such as water or physiological solution [49], can be used as a solvent for parenteral administration of substances, we chose only water-soluble compounds 4o–r for the in vivo study.
As model tumors for the determination of antitumor activity of phosphorus-containing derivatives of pyrrolidine, the strain of lymphatic leukemia P388 was chosen. Lymphatic leukemia P388 was transplanted into hybrid mice of the BDF1 line intraperitoneally in accordance with the standard procedure. The inoculum contained 10^6 tumor cells in isotonic solution of NaCl. […] In each experiment, the control group was represented by the cohort of animals with tumors not treated with the compounds. Each group consisted of six mice. The animals were inspected daily over at least 60 days. The effectiveness of therapy was evaluated by the number of surviving animals, as well as by the increase in the average lifespan (ILS%), which was evaluated as the percentage of the mean survival time (MST) of the treated group (t) as compared to the control group (c): […].

[4] = test system: HuTu 80 human duodenal adenocarcinoma cells; experiment: MTT cytotoxicity assay, HuTu 80; type: cell-based; details: for IC50: Homo sapiens, HuTu80, MTT, tested at 1–200 µM, three independent experiments; for SI (selectivity index) HuTu 80: HuTu 80 versus normal WI38 cells
[5] = Acute in vivo toxicity, single intraperitoneal administration; details: mouse, ip, BDF1 mice, Behrens method, 14 d observation, read-out: half-lethal toxic dose (LD50)
Procedure: Firstly, acute in vivo toxicity was determined in order to calculate doses for the determination of the potential antileukemia activity. An acute toxicity study was carried out on the mice of the BDF1 line weighing from 20 to 24 g. In the experiment, clinically healthy animals were used, which were treated under the same conditions. To evaluate LD50, the toxicity gain curve was plotted against increasing doses (the Behrens method) (Figure 3).
Acute toxicity was evaluated using mice of the BDF1 line weighing from 20 to 24 g. In the experiment, clinically healthy animals treated under the same conditions were used. A total of 4–6 animals were used for each dose. All experiments on animals were carried out according to the Nursery and Vivarium, Russian Academy of Sciences Federal Research Center of Problems of Chemical Physics and Medicinal Chemistry (FRC PCPMC RAS) and in accordance with the rules established by the Commission on Bioethics of the FRC PCPMC RAS. One day after administration of the specimen, the animals were continuously treated for 4 h. Then, death of animals and clinical pattern of intoxication were evaluated once a day for 14 d. The test compounds were added intraperitoneally once. The individual volume of each animal was calculated from the mass of the body and dose of the test compound.
The lethal dose (LD100) for all animals and the maximum tolerable dose (MTD) values were also evaluated. Results of the studies are given in the form of tables and graphs.

[6] = test system: M-HeLa human cervix carcinoma cells; experiment: MTT cytotoxicity assay, M-HeLa; type: cell-based; details: for IC50: Homo sapiens, M-HeLa, tested at 1–200 µM, three independent experiments; for SI (selectivity index) M-HeLa: M-HeLa versus normal WI38 cells
[7] = dose 16 (table prints no unit; b71 mg/kg)
[8] = dose 22 (table prints no unit; b71 mg/kg)
[9] = dose 34 (table prints no unit; b71 mg/kg)
[10] = dose 48 (table prints no unit; b71 mg/kg)
[11] = dose 72 (table prints no unit; b71 mg/kg)
[12] = dose 12 (table prints no unit; b71 mg/kg)
[13] = dose 17 (table prints no unit; b71 mg/kg)
[14] = dose 27 (table prints no unit; b71 mg/kg)
[15] = dose 38 (table prints no unit; b71 mg/kg)
[16] = dose 57 (table prints no unit; b71 mg/kg)
[17] = dose 10 (table prints no unit; b71 mg/kg)
[18] = dose 15 (table prints no unit; b71 mg/kg)
[19] = dose 31 (table prints no unit; b71 mg/kg)
[20] = dose 47 (table prints no unit; b71 mg/kg)

| Structure (SMILES) | IC50 [1] [µM] | IC50 [2] [µM] | IC50 [3] [µM] | ILS (lymphatic leukemia P388; [8]) [%] | MST ± SD (lymphatic leukemia P388; [8]) [days] | antileukemia / antitumor effect (in words) (lymphatic leukemia P388) | IC50 [4] [µM] | SI (selectivity index) HuTu 80 [4] | LD50 at 14 d [5] [mg/kg] | IC50 ([6]; MTT) [µM] | SI (selectivity index) M-HeLa [6] | other results |
| --- | --- | --- | --- | --- | --- | --- | --- | --- | --- | --- | --- | --- |
| CCCCN(CCCC)CCS(=O)(=O)N1CCCC1P(=O)(c1ccccc1)c1ccccc1.Cl (stereo not drawn) [Compound 4p, N-Butyl-N-(2-((2-(diphenylphosphoryl)pyrrolidin-1-yl)sulfonyl)ethyl)butan-1-aminium chloride] | 76.7 ± 6.1 | 63.2 ± 5.7 | 176 ± 3.4 | 80 | 18 ± 3.2 | exhibited antileukemia activity | 94.4 ± 8.7 | - ((-)—no selectivity) | 165 ± 18.2 | 57 ± 4.6 | 1.1 | SI (selectivity index) HL-60 ([1]; HL-60 versus normal RPMI 1788 leukocytes): 2.3; ILS (lymphatic leukemia P388; [7]): 100%; MST ± SD (lymphatic leukemia P388; [7]): 20 ± 3.1 days; ILS (lymphatic leukemia P388; [9]): 75%; MST ± SD (lymphatic leukemia P388; [9]): 17.5 ± 2.7 days; ILS (lymphatic leukemia P388; [10]): 55%; MST ± SD (lymphatic leukemia P388; [10]): 15.5 ± 3.4 days; ILS (lymphatic leukemia P388; [11]): 42%; MST ± SD (lymphatic leukemia P388; [11]): 14.2 ± 2.4 days; cytotoxicity against M-HeLa (in words) ([6]; MTT): moderate cytotoxicity |
| Cl.O=P(c1ccccc1)(c1ccccc1)C1CCCN1S(=O)(=O)CCN1CCCC1 (stereo not drawn) [Compound 4q, 1-(2-((2-(Diphenylphosphoryl)pyrrolidin-1-yl)sulfonyl)ethyl)pyrrolidin-1-ium chloride] | > 100 | > 100 | > 100 |  |  | exhibited antileukemia activity | > 100 |  | 215 ± 16.7 | > 100 |  | ILS (lymphatic leukemia P388; [12]): −9%; MST ± SD (lymphatic leukemia P388; [12]): 8.3 ± 0.6 days; ILS (lymphatic leukemia P388; [13]): 13%; MST ± SD (lymphatic leukemia P388; [13]): 10.3 ± 0.9 days; ILS (lymphatic leukemia P388; [14]): 33%; MST ± SD (lymphatic leukemia P388; [14]): 12.2 ± 1.7 days; ILS (lymphatic leukemia P388; [15]): 69%; MST ± SD (lymphatic leukemia P388; [15]): 15.5 ± 3.9 days; ILS (lymphatic leukemia P388; [16]): 11%; MST ± SD (lymphatic leukemia P388; [16]): 10.2 ± 0.2 days |
| Cl.O=P(c1ccccc1)(c1ccccc1)C1CCCN1S(=O)(=O)CCN1CCCCC1 (stereo not drawn) [Compound 4r, 1-(2-((2-(Diphenylphosphoryl)pyrrolidin-1-yl)sulfonyl)ethyl)piperidin-1-ium chloride] | > 100 | > 100 | > 100 | 4 | 11.2 ± 0.8 | did not display antitumor effect | 97.3 ± 8.2 | >1 | 170 ± 12.1 | 96 ± 8.6 | >1 | ILS (lymphatic leukemia P388; [17]): −9%; MST ± SD (lymphatic leukemia P388; [17]): 9.8 ± 0.2 days; ILS (lymphatic leukemia P388; [18]): −2%; MST ± SD (lymphatic leukemia P388; [18]): 10.5 ± 0.8 days; ILS (lymphatic leukemia P388; [19]): 0%; MST ± SD (lymphatic leukemia P388; [19]): 10.8 ± 0.7 days; ILS (lymphatic leukemia P388; [20]): −1%; MST ± SD (lymphatic leukemia P388; [20]): 10.7 ± 0.8 days |
